Measured values from ChEMBL document CHEMBL1138095, “From ligand to complexes: inhibition of human immunodeficiency virus type 1 integrase by beta-diketo acid metal complexes” (J Med Chem, 2006).

Key:
[1] = molecular target: T1, Human immunodeficiency virus type 1 integrase (Human immunodeficiency virus 1, UniProt Q7ZJM1); assay: Inhibition of HIV1 integrase 3' processing activity
[2] = molecular target: T1, Human immunodeficiency virus type 1 integrase; assay: Inhibition of HIV1 integrase strand transfer activity

T1 sequence (Q7ZJM1 whole entry): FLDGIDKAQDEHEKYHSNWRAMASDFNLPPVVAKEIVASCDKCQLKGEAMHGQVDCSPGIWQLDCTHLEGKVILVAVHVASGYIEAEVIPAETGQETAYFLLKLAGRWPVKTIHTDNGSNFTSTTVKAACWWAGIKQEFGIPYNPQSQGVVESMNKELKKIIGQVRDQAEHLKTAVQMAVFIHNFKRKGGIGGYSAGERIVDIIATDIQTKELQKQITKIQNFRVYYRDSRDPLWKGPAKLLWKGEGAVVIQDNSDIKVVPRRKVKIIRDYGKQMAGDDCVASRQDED

| IC50 [1] | IC50 [2] | Structure (SMILES) |
| --- | --- | --- |
| > 333 µM | > 333 µM | COC(=O)C(=O)/C=C(\O)c1ccccc1 |
| 187 µM | 48 µM | COC(=O)C(=O)/C=C(\O)c1cccn1Cc1ccc(F)cc1 |
